In test [1] the test system is Rattus norvegicus. The experiment in a line: Neuroprotective effect in rat after iv administration at a dose of 30 mg/kg/h for 4 h. In kind it is functional.
The species entered for test [2] is Rattus norvegicus. Briefly: In vitro inhibitory effect on AMPA-induced DC potential in rat cortical slices; active. In kind it is functional.
In test [3] the target is Glutamate receptor ionotropic, AMPA (Rattus norvegicus, UniProt P19490+P19491+P19492+P19493). Briefly: biochemical.
Description: Binding affinity for ionotropic glutamate receptor AMPA using [3H]AMPA as radioligand, bound to synaptic membranes prepared from rat cerebral cortex
In test [4] the test system is Rattus norvegicus. Briefly: Neuroprotective effect in rat after iv administration at a dose of 20 mg/kg/h for 4 h. In kind it is functional.
Test [5] concerns Rattus norvegicus. The experiment in a line: Neuroprotective effect in rat after iv administration at a dose of 5 mg/kg/h for 4 h. The test is classed as functional.
Test [6] has as its system Rattus norvegicus. The experiment in a line: Neuroprotective effect in rat after iv administration at a dose of 15 mg/kg/h for 4 h. The test is classed as functional.
Test [7] concerns Rattus norvegicus. Briefly: Neuroprotective effect in rat after iv administration at a dose of 2.5 mg/kg/h for 4 h. In kind it is functional.

The structures appear in SMILES notation. Active and inactive are the calls of the source. No cut-off for these calls is given here.

In test [1], `NS(=O)(=O)c1cccc2c1c([N+](=O)[O-])cc1nc(O)c(O)nc12` [NBQX] gave an Activity of 2.3.
The term Ki denotes a dissociation constant, usually derived from enzyme kinetics or from competition with a known ligand. Regarding `O=C(O)Cn1c(=O)c(=O)[nH]c2cc([N+](=O)[O-])c(-n3ccnc3)cc21` [ZONAMPANEL], the “activity call (active/inactive)” value in test [2] was “Active”. Further, the affinity in test [3], expressed as Ki, was 62 nM. The Activity in test [1] is 0.5.
Regarding `Cc1nccn1-c1cc2nc(C(=O)O)c(O)nc2cc1[N+](=O)[O-]`, the Ki in test [3] is above 10000 nM.
The same measure, in the same setting: then `O=C(Nc1ccc(C(=O)O)cc1)OCc1cn(-c2cc3nc(C(=O)O)c(=O)[nH]c3cc2[N+](=O)[O-])cn1`, with 22 nM; and `O=C(Nc1ccccc1)OCc1cn(-c2cc3nc(C(=O)O)c(O)nc3cc2[N+](=O)[O-])ccc1=O`, with 170 nM; and `O=C(Nc1cccc(Cl)c1)OCc1cn(-c2cc3nc(C(=O)O)c(O)nc3cc2[N+](=O)[O-])cn1`, with 18 nM.
Compound `O=C(O)c1nc2cc(-n3cnc(CO)c3)c([N+](=O)[O-])cc2[nH]c1=O` returned a Ki in test [3] of 2600 nM.
Consider `O=C(O)c1nc2cc(-n3ccnc3)c([N+](=O)[O-])cc2[nH]c1=O`, for which, in test [3], the affinity corresponds to a Ki of 560 nM.
The same measure, in the same setting: with `O=C(Nc1ccccc1Cl)OCc1cn(-c2cc3nc(C(=O)O)c(O)nc3cc2[N+](=O)[O-])cn1` the figure was 20 nM.
Same read-out and setting: then `O=C(NCc1cccc(Br)c1)OCc1cn(-c2cc3nc(C(=O)O)c(O)nc3cc2[N+](=O)[O-])cn1`, with 100 nM; and `O=C(O)c1nc2cc(F)c([N+](=O)[O-])cc2nc1O`, with 2000 nM.
Still for that read-out and setting: then `O=C(NCc1ccccc1)OCc1cn(-c2cc3nc(C(=O)O)c(=O)[nH]c3cc2[N+](=O)[O-])cn1`, with 67 nM.
On to `O=C(O)c1nc2cc(-n3ccnc3)c([N+](=O)[O-])cc2nc1O`, for which the “activity call (active/inactive)” value in test [2] is “Active”. In addition, the Activity in test [4] is on record as 0.2.
`Cc1cn(-c2cc3nc(C(=O)O)c(O)nc3cc2[N+](=O)[O-])cn1`: in test [3], the affinity corresponds to a Ki of 1300 nM.
Same read-out and setting: then `O=C(Nc1ccc(Br)cc1)OCc1cn(-c2cc3nc(C(=O)O)c(=O)[nH]c3cc2[N+](=O)[O-])cn1`, with 32 nM.
As to `O=C(Nc1cccc(C(=O)O)c1)OCc1cn(-c2cc3nc(C(=O)O)c(O)nc3cc2[N+](=O)[O-])cn1`, the “activity call (active/inactive)” value in test [2] was “Active”. In test [3], the affinity corresponds to a Ki of 27 nM. For the same compound, in test [5], the Activity is 2.3.
In the case of `Cc1ccccc1NC(=O)OCc1cn(-c2cc3nc(C(=O)O)c(O)nc3cc2[N+](=O)[O-])cn1`, the Ki in test [3] worked out at 16 nM.
As for `O=C(O)c1nc2cc(-n3ccc(=O)cc3)c([N+](=O)[O-])cc2nc1O`, the Ki in test [3] was found to be 330 nM.
For the compound `O=C(Nc1ccc(Cl)cc1)OCc1cn(-c2cc3nc(C(=O)O)c(O)nc3cc2[N+](=O)[O-])cn1`, the Ki in test [3] turned out to be 30 nM.
The compound `O=C(O)c1nc2cc(N3CCCCC3)c([N+](=O)[O-])cc2nc1O` returned a Ki in test [3] of 3800 nM.
Same read-out and setting: then `O=C(Nc1cccc(Br)c1)OCc1cn(-c2cc3nc(C(=O)O)c(O)nc3cc2[N+](=O)[O-])cn1`, with 16 nM.
In turn, `Cc1ccc(NC(=O)OCc2cn(-c3cc4nc(C(=O)O)c(O)nc4cc3[N+](=O)[O-])cn2)cc1` came in with a Ki in test [3] of 30 nM.
`O=C(Nc1ccc(C(=O)O)cc1)OCCc1cn(-c2cc3nc(C(=O)O)c(=O)[nH]c3cc2[N+](=O)[O-])cn1` registered a Ki in test [3] of 270 nM.
The same measure, in the same setting: with `O=C(NCc1ccccc1Br)OCc1cn(-c2cc3nc(C(=O)O)c(O)nc3cc2[N+](=O)[O-])cn1` the figure was 29 nM; with `CN(C)c1cc2nc(C(=O)O)c(O)nc2cc1[N+](=O)[O-]`, 910 nM.
Still for that read-out and setting: with `Cc1cccc(NC(=O)OCc2cn(-c3cc4nc(C(=O)O)c(O)nc4cc3[N+](=O)[O-])cn2)c1` the figure was 22 nM.
`O=c1[nH]c2cc(-n3ccnc3)c([N+](=O)[O-])cc2[nH]c1=O` [YM-90K]: the “activity call (active/inactive)” value in test [2] was “Active”. In test [3], this compound returned a Ki of 100 nM. The Activity in test [6] is recorded as 2.8.
In test [3], `O=C(Nc1ccccc1C(=O)O)OCc1cn(-c2cc3nc(C(=O)O)c(=O)[nH]c3cc2[N+](=O)[O-])cn1` registered a Ki above 900 nM.
Take `O=C(Nc1ccc(C(=O)O)cc1)OCc1cn(-c2cc3nc(C(=O)O)c(O)nc3cc2[N+](=O)[O-])cn1`: the “activity call (active/inactive)” value in test [2] is “Active”. In addition, the Activity in test [7] is recorded as 3.
`O=C(O)Cc1cn(-c2cc3nc(C(=O)O)c(O)nc3cc2[N+](=O)[O-])cn1` gave an inhibitory constant (Ki) in test [3] of 530 nM.
Same read-out and setting: then `O=C(Nc1ccccc1Br)OCc1cn(-c2cc3nc(C(=O)O)c(O)nc3cc2[N+](=O)[O-])cn1`, with 30 nM; and `O=C(O)c1nc2cc(N3CCC(O)CC3)c([N+](=O)[O-])cc2nc1O`, with 2500 nM; and `O=C(NCc1ccc(Br)cc1)OCc1cn(-c2cc3nc(C(=O)O)c(O)nc3cc2[N+](=O)[O-])cn1`, with 47 nM.
Still for that read-out and setting: then `O=C(O)c1nc2cc(N3CCOCC3)c([N+](=O)[O-])cc2nc1O`, with 2000 nM; and `O=C(Nc1ccccc1)OCc1cn(-c2cc3nc(C(=O)O)c(O)nc3cc2[N+](=O)[O-])cn1`, with 86 nM.

The values are drawn from ChEMBL document CHEMBL1136292, “Synthesis and AMPA receptor antagonistic activity of a novel class of quinoxalinecarboxylic acid with a substituted phenyl group at the C-7 position” (Bioorg Med Chem Lett, 2003).
